Reference: patent US20100137313A1 (ASTRAZENECA AB, priority 2008, published 2010)

Target: S. pneumoniae Topoisomerase IV ATPase (ParE) (Streptococcus pneumoniae serotype 4, UniProt Q59961)
Test: S. pneumoniae Topoisomerase IV ATPase inhibition
Assay type: biochemical
Settings: values marked * are an average of two or more data points, read-out: % Inh (13 μM) of S. pneumoniae Topoisomerase IV ATPase
Procedure, shortened: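 ParE ATPase (1.25 nM) run with 160 μM ATP and 5 μg/ml sheared salmon sperm DNA in Tris pH 8.0, Mg2+, glycerol, DTT, Brij-35. Phosphate released read by malachite green/molybdate absorbance at 650 nm. IC50 from 10 compound concentrations; DMSO (2%) as 0% and EDTA (20 μM) as 100% inhibition.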

Chain of S. pneumoniae Topoisomerase IV ATPase (ParE) (Q59961 whole entry): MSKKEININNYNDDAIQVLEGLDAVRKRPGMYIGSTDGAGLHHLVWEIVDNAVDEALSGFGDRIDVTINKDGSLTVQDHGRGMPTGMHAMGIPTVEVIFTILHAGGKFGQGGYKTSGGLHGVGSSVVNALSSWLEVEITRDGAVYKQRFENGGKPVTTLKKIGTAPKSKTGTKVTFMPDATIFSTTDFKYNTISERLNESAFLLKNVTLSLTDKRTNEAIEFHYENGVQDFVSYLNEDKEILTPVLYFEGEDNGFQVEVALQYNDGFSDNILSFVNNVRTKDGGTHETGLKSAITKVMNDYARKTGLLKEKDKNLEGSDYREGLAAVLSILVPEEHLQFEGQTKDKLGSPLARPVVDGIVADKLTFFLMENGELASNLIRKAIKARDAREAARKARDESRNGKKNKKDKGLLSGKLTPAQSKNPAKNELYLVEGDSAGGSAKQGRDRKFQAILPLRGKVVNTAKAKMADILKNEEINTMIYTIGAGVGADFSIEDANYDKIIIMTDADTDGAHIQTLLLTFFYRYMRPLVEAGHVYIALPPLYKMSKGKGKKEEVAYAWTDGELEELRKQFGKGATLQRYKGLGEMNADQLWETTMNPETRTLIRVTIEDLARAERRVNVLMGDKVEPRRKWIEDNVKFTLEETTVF

SMILES: CCOC(=O)c1cncc(-c2cnc(Nc3ccc(F)c(Cl)c3)nc2N2CCC(O)CC2)c1 [Example 117, ethyl 5-[2-[(3-chloro-4-fluorophenyl)amino]-4-(4-hydroxypiperidin-1-yl)pyrimidin-5-yl]pyridine-3-carboxylate]
- inhibition at 13 µM: 73.4%

SMILES: O=C(O)c1cccc(-c2cnc(Nc3ccc(F)c(Cl)c3)nc2-n2ccc(C(F)(F)F)n2)n1 [Example 877, 6-(2-(3-chloro-4-fluorophenylamino)-4-(3-(trifluoromethyl)-1H-pyrazol-1-yl)pyrimidin-5-yl)picolinic acid]
- inhibition at 13 µM: 100%

SMILES: COc1cc(Nc2ncc(-c3cccc(/C=C/C(=O)O)c3)c(N3CCOCC3)n2)ccc1F [Example 452]
- inhibition at 13 µM: 76%

SMILES: Cc1cc(C(=O)O)nc(-c2cnc(Nc3ccc(F)c(Cl)c3)nc2-n2ccc(C(F)(F)F)n2)n1 [Example 879, 2′-(3-chloro-4-fluorophenylamino)-6-methyl-4′-(3-(trifluoromethyl)-1H-pyrazol-1-yl)-2,5′-bipyrimidine-4-carboxylic acid]
- inhibition at 13 µM: 91%

SMILES: Cc1cc(C(F)(F)F)nn1-c1nc(Nc2ccc(F)c(Cl)c2)ncc1-c1cncc(S(=O)(=O)N2CCOCC2)c1 [Example 1036]
- inhibition at 13 µM: 100%

SMILES: Cc1cc(C(F)(F)F)nn1-c1nc(Nc2cc(Cl)cc(C#N)c2)ncc1-c1cncc(C(=O)O)c1 [Example 1123, 5-(2-(3-chloro-5-cyanophenylamino)-4-(5-methyl-3-(trifluoromethyl)-1H-pyrazol-1-yl)pyrimidin-5-yl)nicotinic acid]
- inhibition at 13 µM: 100%

SMILES: COCCn1cc(-c2cnc(Nc3cc(OC)cc(OC)c3)nc2-n2ccc(C(F)(F)F)n2)cc(C(=O)NS(C)(=O)=O)c1=O [Example 1163, 5-(2-(3,5-dimethoxyphenylamino)-4-(3-(trifluoromethyl)-1H-pyrazol-1-yl)pyrimidin-5-yl)-1-(2-methoxyethyl)-N-(methylsulfonyl)-2-oxo-1,2-dihydropyridine-3-carboxamide]
- inhibition at 13 µM: 100%

SMILES: COc1cc(Nc2ncc(-c3c[nH]c(=O)c(C(=O)O)c3)c(-n3nc(C(F)(F)F)cc3C)n2)cc(OC)c1 [Example 1098, 5-(2-(3,5-Dimethoxyphenylamino)-4-(5-methyl-3-(trifluoromethyl)-1H-pyrazol-1-yl)pyrimidin-5-yl)-2-oxo-1,2-dihydropyridine-3-carboxylic acid]
- inhibition at 13 µM: 100%

SMILES: COc1cc(Nc2ncc(-c3cnc(OCCN4CCOCC4)c(C(=O)O)c3)c(-n3nc(C(F)(F)F)cc3C)n2)cc(OC)c1 [Example 1136, 5-(2-(3,5-dimethoxyphenylamino)-4-(5-methyl-3-(trifluoromethyl)-1H-pyrazol-1-yl)pyrimidin-5-yl)-2-(2-morpholinoethoxy)nicotinic acid]
- inhibition at 13 µM: 99%

SMILES: Cc1cc(C(F)(F)F)nn1-c1nc(Nc2ccc(F)c(Cl)c2)ncc1-c1ccc(C(=O)O)s1 [Example 1114, 5-[2-[(3-chloro-4-fluorophenyl)amino]-4-[5-methyl-3-(trifluoromethyl)pyrazol-1-yl]pyrimidin-5-yl]thiophene-2-carboxylic acid]
- inhibition at 13 µM: 100%

SMILES: CCS(=O)(=O)NC(=O)c1cc(-c2cnc(Nc3ccc(F)c(Cl)c3)nc2-n2ccc(C(F)(F)F)n2)cnc1OC [Example 1016, 5-(2-(3-Chloro-4-fluorophenylamino)-4-(3-(trifluoromethyl)-1H-pyrazol-1-yl)pyrimidin-5-yl)-N-(ethylsulfonyl)-2-methoxynicotinamide]
- inhibition at 13 µM: 94%

SMILES: COc1ncc(-c2cnc(Nc3ccc(F)c(Cl)c3)nc2-n2ccc(C(F)(F)F)n2)cc1/C=C/C(=O)O [Example 1030, (E)-3-(5-(2-(3-chloro-4-fluorophenylamino)-4-(3-(trifluoromethyl)-1H-pyrazol-1-yl)pyrimidin-5-yl)-2-methoxypyridin-3-yl)acrylic acid]
- inhibition at 13 µM: 100%

SMILES: COc1cc(Nc2ncc(-c3cncc(C(=O)NCCS(C)(=O)=O)c3)c(-n3nc(C(F)(F)F)cc3C)n2)cc(OC)c1 [Example 685, 5-{2-[(3,5-dimethoxyphenyl)amino]-4-[5-methyl-3-(trifluoromethyl)-1H-pyrazol-1-yl]pyrimidin-5-yl}-N-[2-(methylsulfonyl)ethyl]pyridine-3-carboxamide]
- inhibition at 13 µM: 100%

SMILES: COc1cc(F)cc(Nc2ncc(-c3ccc(C(=O)O)o3)c(-n3ccc(C(F)(F)F)n3)n2)c1 [Example 892, 5-(2-(3-fluoro-5-methoxyphenylamino)-4-(3-(trifluoromethyl)-1H-pyrazol-1-yl)pyrimidin-5-yl)furan-2-carboxylic acid]
- inhibition at 13 µM: 100%

SMILES: COc1ncc(-c2cnc(Nc3cc(C)cc(C)c3)nc2-n2nc(C(F)(F)F)cc2C)cc1C(=O)NS(=O)(=O)C(C)C [Example 827, 5-{2-[(3,5-dimethylphenyl)amino]-4-[5-methyl-3-(trifluoromethyl)-1H-pyrazol-1-yl]pyrimidin-5-yl}-2-methoxy-N-(propan-2-ylsulfonyl)pyridine-3-carboxamide]
- inhibition at 13 µM: 100%

SMILES: O=C(O)[C@@H]1C[C@H]1c1cncc(-c2cnc(Nc3ccc(F)c(Cl)c3)nc2-n2ccc(C(F)(F)F)n2)c1 [Example 573, (1,2-trans)-2-(5-(2-(3-chloro-4-fluorophenvlamino)-4-(3-(trifluoromethyl)-1H-pyrazol-1-yl)pyrimidin-5-yl)pyridin-3-yl)cyclopropanecarboxylic acid]
- inhibition at 13 µM: 100%

SMILES: COc1ncc(-c2cnc(Nc3cccc(C(C)=O)c3)nc2-n2ccc(C(F)(F)F)n2)cc1C(=O)O [Example 720, 5-{2-[(3-acetylphenyl)amino]-4-[3-(trifluoromethyl)-1H-pyrazol-1-yl]pyrimidin-5-yl}-2-methoxypyridine-3-carboxylic acid]
- inhibition at 13 µM: 100%

SMILES: COCCN1CCN(c2nc(Nc3ccc(F)c(Cl)c3)ncc2-c2cncc(C(=O)O)c2)CC1 [Example 284, 5-(2-(3-chloro-4-fluorophenylamino)-4-(4-(2-methoxyethyl)piperazin-1-yl)pyrimidin-5-yl)nicotinic acid]
- inhibition at 13 µM: 69.4%

SMILES: COc1cc(Nc2ncc(-c3cnc(NCCS(C)(=O)=O)c(C(=O)O)c3)c(-n3ccc(C(F)(F)F)n3)n2)cc(OC)c1 [Example 585, 5-(2-(3,5-dimethoxyphenylamino)-4-(3-(trifluoromethyl)-1H-pyrazol-1-yl)pyrimidin-5-yl)-2-(2-(methylsulfonyl)ethylamino)nicotinic acid]
- inhibition at 13 µM: 100%

SMILES: COc1ncc(-c2cnc(Nc3cc(C)cc(C)c3)nc2-n2nc(C(F)(F)F)cc2C)cc1C(=O)O [Example 646, 5-{2-[(3,5-dimethylphenyl)amino]-4-[5-methyl-3-(trifluoromethyl)-1H-pyrazol-1-yl]pyrimidin-5-yl}-2-methoxypyridine-3-carboxylic acid]
- inhibition at 13 µM: 100%

SMILES: NC(=O)c1cncc(-c2cnc(Nc3ccc(F)c(Cl)c3)nc2-n2ccc(-c3ccsc3)n2)c1 [Example 540, 5-{2-[(3-chloro-4-fluorophenyl)amino]-4-[3-(thiophen-3-yl)-1H-pyrazol-1-yl]pyrimidin-5-yl}pyridine-3-carboxamide]
- inhibition at 13 µM: 100%

SMILES: Cc1cc(F)cc(Nc2ncc(-c3cncc(C(=O)O)c3)c(-n3ccc(C(F)(F)F)n3)n2)c1 [Example 770, 5-{2-[(3-fluoro-5-methylphenyl)-amino]-4-[3-(trifluoromethyl)-1H-pyrazol-1-yl]pyrimidin-5-yl}pyridine-3-carboxylic acid]
- inhibition at 13 µM: 100%

SMILES: CC(=O)Nc1ccn(-c2nc(Nc3ccc(F)c(Cl)c3)ncc2-c2cncc(C(=O)O)c2)n1 [Example 534, 5-{4-[3-(acetylamino)-1H-pyrazol-1-yl]-2-[(3-chloro-4-fluorophenyl)amino]pyrimidin-5-yl}pyridine-3-carboxylic acid]
- inhibition at 13 µM: 49%

SMILES: CN(C)CCCNc1nc(Nc2ccc(F)c(Cl)c2)ncc1-c1ccc2cc[nH]c2c1 [Example 4, N^2-(3-chloro-4-fluorophenyl)-N^4-(3-(dimethylamino)propyl)-5-(1H-indol-6-yl)pyrimidine-2,4-diamine]
- inhibition at 13 µM: 93.1%

SMILES: COc1cc(Nc2ncc(-c3cccc(/C=C/C(=O)O)c3)c(N3CC(C)OC(C)C3)n2)cc(C(F)(F)F)c1 (stereo not drawn) [Example 348, (E)-3-(3-(4-(2,6-dimethylmorpholino)-2-(3-methoxy-5-(trifluoromethyl)phenylamino)pyrimidin-5-yl)phenyl) acrylic acid]
- inhibition at 13 µM: 85.7%

SMILES: CCn1cc(-c2cnc(Nc3ccc(F)c(Cl)c3)nc2-n2ccc(C(F)(F)F)n2)cc(C(=O)O)c1=O [Example 1085, 5-(2-(3-Chloro-4-fluorophenylamino)-4-(3-(trifluoromethyl)-1H-pyrazol-1-yl)pyrimidin-5-yl)-1-ethyl-2-oxo-1,2-dihydropyridine-3-carboxylic acid]
- inhibition at 13 µM: 100%

SMILES: CNc1ncc(-c2cnc(Nc3cc(OC)cc(OC)c3)nc2-n2nc(C(F)(F)F)cc2C)cc1C(=O)O [Example 591, 5-(2-(3,5-dimethoxyphenylamino)-4-(5-methyl-3-(trifluoromethyl)-1H-pyrazol-1-yl)pyrimidin-5-yl)-2-(methylamino)nicotinic acid]
- inhibition at 13 µM: 100%

SMILES: O=C(O)c1cncc(-c2cnc(Nc3ccc(F)c(Cl)c3)nc2-n2cnc(C(F)(F)F)c2)c1 [Example 328, 5-{2-[(3-chloro-4-fluorophenyl)amino]-4-[4-(trifluoromethyl)-1H-imidazol-1-yl]pyrimidin-5-yl}pyridine-3-carboxylic acid]
- inhibition at 13 µM: 70.8%

SMILES: O=C(O)c1cc(-c2cnc(Nc3ccc(F)c(Cl)c3)nc2-n2ccc(C(F)(F)F)n2)cn(CCN2CCOCC2)c1=O [Example 1075, 5-(2-(3-Chloro-4-fluorophenylamino)-4-(3-(trifluoromethyl)-1H-pyrazol-1-yl)pyrimidin-5-yl)-1-(2-morpholinoethyl)-2-oxo-1,2-dihydropyridine-3-carboxylic acid]
- inhibition at 13 µM: 97%

SMILES: CCOC(=O)/C=C/c1cccc(-c2cnc(Nc3ccc(F)c(Cl)c3)nc2N2CCCCC2)c1 [Example 171, (E)-ethyl 3-(3-(2-(3-chloro-4-fluorophenylamino)-4-(piperidin-1-yl)pyrimidin-5-yl)phenyl)acrylate]
- inhibition at 13 µM: 3.62%
